Measurements from patent US20210187008A1, “USE OF ACANTHOPANAX TRIFOLIATUS POLYSACCHARIDE ATP1-1 IN PREPARATION OF DRUGS FOR TREATMENT OF DIABETES” (GUANGDONG PHARMACEUTICAL UNIVERSITY, priority 2019, published 2021).

Tests used:
Type in all cases: in vivo
[1] = test system: STZ-induced diabetic mice; assay: Body weight of STZ-induced diabetic mice; conditions: for Body Weight: dimethylbiguanide 185 mg/kg intragastric
Description: (§1) After 70 mice were adaptively fed for 3 days, they were fasted and kept feeding water for 12 hours, 0.1 mol/L STZ-streptozotocin solution was injected intraperitoneally, the injection volume was 60 mg/kg, and the injection was continued for 5 days. Seven days after the injection, the mice were fasted and kept feeding water for 8 hours, and the tail was cut to collect blood and the fasting blood glucose of the mice was measured. The model was considered as a successful model with a blood glucose concentration greater than 16.5 mmol/L. Diabetic mice successfully modeled (50) were randomly divided into 5 groups, namely: a high glucose model group, a dimethylbiguanid group (185 mg/kg), ATP1-1 high dose group (140 mg/kg), ATP1-1 medium dose group (70 mg/kg), ATP1-1 low dose group (35 mg/kg), 10 mice in each group, and 10 normal mice were randomly selected as a normal control group. All groups were administrated by intragastric administration, and the normal control group and high glucose model group were administrated the same amount of distilled water. after the successful modelling, the body weight, diet and water consumption and blood glucose of the mice before administration and 1, 2, 3, 4, 5, and 6 weeks after administration were measured, and the glucose tolerance was measured at the end of the experiment.

[2] = test system: diabetic mice; assay: Fasting blood glucose in diabetic mice; conditions: dimethylbiguanide 185 mg/kg
Description: as §1

[3] = test system: diabetic mice; assay: Diet and water consumption of diabetic mice; conditions: dimethylbiguanide 185 mg/kg, during the administration period, P<0.01
Description: as §1

CN(C)C(=N)NC(=N)N [Dimethylbiguanide, dimethylbiguanide]
Body Weight ([1]; Week 0 (before administration), x±s, n=8): 19.48 ± .78 g
Body Weight ([1]; Week 1): 19.72 ± .77 g
Body Weight ([1]; Week 2): 20.40 ± .78 g
Body Weight ([1]; Week 3): 20.94 ± .73 g
Body Weight ([1]; Week 4): 21.49 ± .84 g
Body Weight ([1]; Week 5): 21.70 ± .90 g
Body Weight ([1]; Week 6): 21.89 ± .89 g
body weight compared with high glucose model group ([1]; dimethylbiguanide 185 mg/kg, after 6 weeks of administration, P<0.05): significantly higher
fasting blood sugar compared with high glucose group ([2]; after three weeks of administration, P<0.05): significantly different
blood glucose inhibition rate ([2]; at the end of the administration (6 weeks)): 46.9%
diet and water consumption compared with high glucose model group [3]: significantly reduced
